Read-outs that look alike come from different tables or passages of the source.
What was measured:
BRAF = target: T1, BRAF (Homo sapiens, UniProt P15056); assay: In vitro kinase assay (Z'-LYTE, Invitrogen); type: biochemical; settings: compound at 100 nM, ATP Km apparent, read-out: % of inhibition of the kinase compared to the control
T1 construct: purchased Invitrogen
How it was run: (§1)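 Z′-LYTE, coupled-enzyme FRET format; single dose 100 nM cpd, 1% DMSO. Buffer: 50 mM HEPES pH 7.5, 10 mM MgCl2, 1 mM EGTA, 0.01% BRIJ-35. ATP = apparent Km. Readout: donor/acceptor emission ratio, ex 400 nm → % inhibition.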

EGFR (ErbB1) = target: T2, EGFR (ErbB1) (Homo sapiens, UniProt P00533); assay: In vitro kinase assay (Z'-LYTE, Invitrogen); type: biochemical; settings: compound at 100 nM, ATP Km apparent, read-out: % of inhibition of the kinase compared to the control
T2 construct: purchased Invitrogen
How it was run: as §1

FGFR2 = target: T3, FGFR2 (Homo sapiens, UniProt P21802); assay: In vitro kinase assay (Z'-LYTE, Invitrogen); type: biochemical; settings: compound at 100 nM, ATP Km apparent, read-out: % of inhibition of the kinase compared to the control
T3 construct: purchased Invitrogen
How it was run: as §1

KDR (VEGFR2) = target: T4, KDR (VEGFR2) (Homo sapiens, UniProt P35968); assay: In vitro kinase assay (Z'-LYTE, Invitrogen); type: biochemical; settings: compound at 100 nM, ATP Km apparent, read-out: % of inhibition of the kinase compared to the control
T4 construct: purchased Invitrogen
How it was run: as §1

PDGFRA (PDGFR alpha) = target: T5, PDGFRA (PDGFR alpha) (Homo sapiens, UniProt P16234); assay: In vitro kinase assay (Z'-LYTE, Invitrogen); type: biochemical; settings: compound at 100 nM, ATP Km apparent, read-out: % of inhibition of the kinase compared to the control
T5 construct: purchased Invitrogen
How it was run: as §1

SRC = target: T6, SRC (Homo sapiens, UniProt P12931); assay: In vitro kinase assay (Z'-LYTE, Invitrogen); type: biochemical; settings: compound at 100 nM, ATP Km apparent, read-out: % of inhibition of the kinase compared to the control
T6 construct: purchased Invitrogen
How it was run: as §1

HRMEC cells = assay: In vitro cell proliferation assay (MTT); type: cell-based; settings: 72 hr, read-out: EC50, anti-proliferative activity
How it was run: (§2)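 Cancer cells were seeded at 5×10^3 per well and HRMEC at 1×10^4 per well, then exposed in duplicate to compound (10 nM to 3 μM) for 72 hr. Proliferation was read by MTT. EC50 came from sigmoidal dose-response fits normalized to DMSO (0%) and 1% SDS (100%) controls.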

A549 cell line = assay: In vitro cell proliferation assay (MTT); type: cell-based; settings: Homo sapiens, A549, 72 h, read-out: EC50, anti-proliferative activity
How it was run: as §2

HUVEC cells = assay: In vitro cell proliferation assay (MTT); type: cell-based; settings: Homo sapiens, 72 hr, read-out: EC50, anti-proliferative activity
How it was run: as §2

HeLa cell line = assay: In vitro cell proliferation assay (MTT); type: cell-based; settings: Homo sapiens, 72 hr, 100 nM < EC50 < 1 μM, read-out: EC50, anti-proliferative activity
How it was run: as §2

HepG2 cell line = assay: In vitro cell proliferation assay (MTT); type: cell-based; settings: Homo sapiens, HepG2, 72 hr, read-out: EC50, anti-proliferative activity
How it was run: as §2

HuCCT1 cell line = assay: In vitro cell proliferation assay (MTT); type: cell-based; settings: Homo sapiens, HuCCT-1, HuCCT1, 72 hr, read-out: EC50, anti-proliferative activity
How it was run: as §2

HuH6 Clone 5 cell line = assay: In vitro cell proliferation assay (MTT); type: cell-based; settings: HUH-6-clone5, HuH6 Clone 5, 72 hr, read-out: EC50, anti-proliferative activity
How it was run: as §2

HuH7 cell line = assay: In vitro cell proliferation assay (MTT); type: cell-based; settings: Homo sapiens, Huh-7, HuH7, 72 hr, 100 nM < EC50 < 1 μM, read-out: EC50, anti-proliferative activity
How it was run: as §2

MDA-MB-231 cell line = assay: In vitro cell proliferation assay (MTT); type: cell-based; settings: Homo sapiens, MDA-MB-231, 72 hr, read-out: EC50, anti-proliferative activity
How it was run: as §2

EGFR (ErbB1) T790M L858R = target: T7, EGFR (ErbB1) T790M L858R (Homo sapiens, UniProt P00533, L858R/T790M); assay: In vitro kinase assay (Z'-LYTE, Invitrogen); type: biochemical; settings: compound at 100 nM, ATP Km apparent, read-out: % of inhibition of the kinase compared to the control
T7 construct: purchased Invitrogen
How it was run: as §1

H1975 cell line = assay: In vitro cell proliferation assay (MTT); type: cell-based; settings: Homo sapiens, NCI-H1975, H1975, 72 hr, read-out: EC50, anti-proliferative activity
How it was run: as §2

HT29 cell line = assay: In vitro cell proliferation assay (MTT); type: cell-based; settings: Homo sapiens, HT-29, HT29, 72 hr, read-out: EC50, anti-proliferative activity
How it was run: as §2

T2 sequence (P00533 25-1210): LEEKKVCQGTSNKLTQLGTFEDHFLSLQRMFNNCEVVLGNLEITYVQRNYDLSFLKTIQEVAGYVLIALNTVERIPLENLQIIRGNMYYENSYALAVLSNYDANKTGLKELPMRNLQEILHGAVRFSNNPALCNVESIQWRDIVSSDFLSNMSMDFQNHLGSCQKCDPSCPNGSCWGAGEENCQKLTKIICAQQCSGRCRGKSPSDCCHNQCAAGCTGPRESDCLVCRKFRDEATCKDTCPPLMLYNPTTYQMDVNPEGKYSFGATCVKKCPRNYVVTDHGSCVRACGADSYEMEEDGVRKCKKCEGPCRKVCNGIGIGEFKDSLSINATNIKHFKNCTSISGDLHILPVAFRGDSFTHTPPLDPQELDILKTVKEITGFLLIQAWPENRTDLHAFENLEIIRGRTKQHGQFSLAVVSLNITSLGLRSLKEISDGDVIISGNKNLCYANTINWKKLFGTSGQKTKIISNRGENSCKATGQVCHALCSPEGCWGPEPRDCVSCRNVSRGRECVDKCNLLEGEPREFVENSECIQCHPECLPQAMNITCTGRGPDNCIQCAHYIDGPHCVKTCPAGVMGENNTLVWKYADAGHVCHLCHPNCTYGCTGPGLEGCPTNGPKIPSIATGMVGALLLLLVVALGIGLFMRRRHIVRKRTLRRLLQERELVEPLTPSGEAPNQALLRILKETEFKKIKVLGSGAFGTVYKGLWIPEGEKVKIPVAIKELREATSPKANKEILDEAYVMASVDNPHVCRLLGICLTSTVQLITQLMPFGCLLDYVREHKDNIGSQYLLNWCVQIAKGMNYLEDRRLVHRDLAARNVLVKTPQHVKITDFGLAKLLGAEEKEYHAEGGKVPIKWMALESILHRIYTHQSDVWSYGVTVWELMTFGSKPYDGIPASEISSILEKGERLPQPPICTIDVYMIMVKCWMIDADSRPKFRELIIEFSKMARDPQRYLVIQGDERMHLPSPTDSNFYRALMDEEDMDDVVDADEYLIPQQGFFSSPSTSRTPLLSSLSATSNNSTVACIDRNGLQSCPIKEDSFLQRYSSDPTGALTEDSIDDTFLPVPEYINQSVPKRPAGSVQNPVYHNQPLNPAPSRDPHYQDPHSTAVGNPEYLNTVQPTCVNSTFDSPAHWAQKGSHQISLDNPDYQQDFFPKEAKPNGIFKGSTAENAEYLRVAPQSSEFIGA
T5 sequence (P16234 24-1089): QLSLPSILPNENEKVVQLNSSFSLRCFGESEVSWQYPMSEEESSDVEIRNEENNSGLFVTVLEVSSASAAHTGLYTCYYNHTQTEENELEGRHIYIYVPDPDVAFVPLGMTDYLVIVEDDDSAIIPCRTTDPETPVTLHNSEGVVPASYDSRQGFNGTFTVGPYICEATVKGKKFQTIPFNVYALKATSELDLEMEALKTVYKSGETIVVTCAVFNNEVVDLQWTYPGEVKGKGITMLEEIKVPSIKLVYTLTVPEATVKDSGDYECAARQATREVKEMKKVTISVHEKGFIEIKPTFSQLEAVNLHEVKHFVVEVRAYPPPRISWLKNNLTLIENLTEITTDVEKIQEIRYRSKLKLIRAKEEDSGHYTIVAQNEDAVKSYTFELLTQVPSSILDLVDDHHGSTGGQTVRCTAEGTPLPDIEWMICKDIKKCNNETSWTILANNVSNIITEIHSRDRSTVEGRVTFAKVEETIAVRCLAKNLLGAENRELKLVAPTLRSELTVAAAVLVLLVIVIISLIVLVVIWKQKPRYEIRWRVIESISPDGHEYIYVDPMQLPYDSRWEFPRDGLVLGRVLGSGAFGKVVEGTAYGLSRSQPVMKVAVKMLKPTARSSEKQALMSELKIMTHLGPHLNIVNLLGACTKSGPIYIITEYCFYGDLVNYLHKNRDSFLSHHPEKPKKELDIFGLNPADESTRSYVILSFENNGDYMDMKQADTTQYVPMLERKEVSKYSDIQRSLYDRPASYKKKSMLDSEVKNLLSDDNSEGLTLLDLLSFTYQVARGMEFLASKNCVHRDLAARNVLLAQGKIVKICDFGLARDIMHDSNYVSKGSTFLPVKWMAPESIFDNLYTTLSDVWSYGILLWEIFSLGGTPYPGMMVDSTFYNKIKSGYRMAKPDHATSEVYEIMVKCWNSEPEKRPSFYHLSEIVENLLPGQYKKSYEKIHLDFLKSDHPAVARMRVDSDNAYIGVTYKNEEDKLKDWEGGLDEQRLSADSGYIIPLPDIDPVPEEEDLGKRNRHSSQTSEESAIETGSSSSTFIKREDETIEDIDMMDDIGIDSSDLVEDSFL
T1 sequence (P15056 whole entry): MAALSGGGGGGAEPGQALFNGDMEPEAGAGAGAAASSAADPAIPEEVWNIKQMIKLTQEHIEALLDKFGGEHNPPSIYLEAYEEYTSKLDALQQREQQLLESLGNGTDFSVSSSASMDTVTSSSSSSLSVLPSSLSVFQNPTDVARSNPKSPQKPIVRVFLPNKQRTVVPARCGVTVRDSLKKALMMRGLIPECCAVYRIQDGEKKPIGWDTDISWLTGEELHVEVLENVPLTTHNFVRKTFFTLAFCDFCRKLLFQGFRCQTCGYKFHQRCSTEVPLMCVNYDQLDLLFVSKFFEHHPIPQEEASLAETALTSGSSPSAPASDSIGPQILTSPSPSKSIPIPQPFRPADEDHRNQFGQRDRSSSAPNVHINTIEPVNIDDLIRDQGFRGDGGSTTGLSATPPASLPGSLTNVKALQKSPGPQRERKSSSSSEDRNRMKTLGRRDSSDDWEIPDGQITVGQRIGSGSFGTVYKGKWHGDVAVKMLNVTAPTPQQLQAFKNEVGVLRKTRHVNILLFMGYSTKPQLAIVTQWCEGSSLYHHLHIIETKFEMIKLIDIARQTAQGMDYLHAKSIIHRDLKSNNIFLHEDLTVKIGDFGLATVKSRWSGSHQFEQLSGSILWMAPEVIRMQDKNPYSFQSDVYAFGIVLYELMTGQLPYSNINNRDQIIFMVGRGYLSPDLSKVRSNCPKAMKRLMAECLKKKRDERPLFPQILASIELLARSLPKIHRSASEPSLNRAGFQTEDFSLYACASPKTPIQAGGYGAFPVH
T6 sequence (P12931 whole entry): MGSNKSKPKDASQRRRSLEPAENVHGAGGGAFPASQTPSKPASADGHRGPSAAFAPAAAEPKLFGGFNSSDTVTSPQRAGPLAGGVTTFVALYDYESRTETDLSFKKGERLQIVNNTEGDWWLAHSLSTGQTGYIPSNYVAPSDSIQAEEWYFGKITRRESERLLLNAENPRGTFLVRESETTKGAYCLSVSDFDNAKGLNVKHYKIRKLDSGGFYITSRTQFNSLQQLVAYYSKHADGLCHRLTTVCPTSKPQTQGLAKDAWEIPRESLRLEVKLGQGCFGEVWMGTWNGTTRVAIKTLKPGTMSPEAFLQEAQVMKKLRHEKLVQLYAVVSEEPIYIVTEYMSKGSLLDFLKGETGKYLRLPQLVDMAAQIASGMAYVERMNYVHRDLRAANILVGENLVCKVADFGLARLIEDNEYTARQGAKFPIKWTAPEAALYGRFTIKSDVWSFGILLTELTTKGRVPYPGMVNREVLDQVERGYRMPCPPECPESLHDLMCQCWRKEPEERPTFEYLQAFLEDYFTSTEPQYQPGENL
T4 sequence (P35968 20-1356): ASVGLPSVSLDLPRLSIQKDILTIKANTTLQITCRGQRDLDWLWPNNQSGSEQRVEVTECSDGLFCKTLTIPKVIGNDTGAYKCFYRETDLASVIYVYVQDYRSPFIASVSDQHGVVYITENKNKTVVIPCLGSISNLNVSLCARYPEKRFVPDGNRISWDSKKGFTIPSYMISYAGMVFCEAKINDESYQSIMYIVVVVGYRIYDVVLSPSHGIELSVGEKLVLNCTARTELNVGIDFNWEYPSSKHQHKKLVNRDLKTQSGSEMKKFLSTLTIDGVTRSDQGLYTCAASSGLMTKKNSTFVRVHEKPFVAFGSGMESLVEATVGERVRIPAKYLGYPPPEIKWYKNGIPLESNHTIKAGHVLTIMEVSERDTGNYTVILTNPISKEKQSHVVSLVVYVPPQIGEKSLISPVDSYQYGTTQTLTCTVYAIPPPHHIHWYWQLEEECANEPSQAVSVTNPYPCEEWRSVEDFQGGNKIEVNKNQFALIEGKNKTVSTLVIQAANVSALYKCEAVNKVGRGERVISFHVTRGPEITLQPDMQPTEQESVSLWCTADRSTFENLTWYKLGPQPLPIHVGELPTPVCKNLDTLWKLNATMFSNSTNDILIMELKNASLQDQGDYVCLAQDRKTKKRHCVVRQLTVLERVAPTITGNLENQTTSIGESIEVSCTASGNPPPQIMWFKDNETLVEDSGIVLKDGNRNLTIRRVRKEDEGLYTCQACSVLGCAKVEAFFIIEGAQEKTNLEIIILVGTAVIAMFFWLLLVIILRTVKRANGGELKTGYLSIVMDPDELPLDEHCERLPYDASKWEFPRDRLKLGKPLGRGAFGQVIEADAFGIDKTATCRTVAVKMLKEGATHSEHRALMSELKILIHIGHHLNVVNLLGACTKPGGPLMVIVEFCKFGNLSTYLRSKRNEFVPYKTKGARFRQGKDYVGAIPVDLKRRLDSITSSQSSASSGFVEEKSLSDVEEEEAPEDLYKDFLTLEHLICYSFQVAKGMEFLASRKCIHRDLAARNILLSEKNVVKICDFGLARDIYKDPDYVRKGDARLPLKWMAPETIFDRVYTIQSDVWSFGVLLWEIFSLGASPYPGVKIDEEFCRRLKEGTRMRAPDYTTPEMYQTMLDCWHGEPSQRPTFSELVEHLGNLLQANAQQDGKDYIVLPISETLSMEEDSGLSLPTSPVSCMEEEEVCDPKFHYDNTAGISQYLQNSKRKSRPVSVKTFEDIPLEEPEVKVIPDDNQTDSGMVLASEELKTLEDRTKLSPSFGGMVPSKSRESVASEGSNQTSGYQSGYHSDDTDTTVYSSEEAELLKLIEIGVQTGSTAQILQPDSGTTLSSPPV

Structure (SMILES)	inhibition at 0.1 µM (BRAF) [%]	inhibition at 0.1 µM (EGFR (ErbB1)) [%]	inhibition at 0.1 µM (FGFR2) [%]	inhibition at 0.1 µM (KDR (VEGFR2)) [%]	inhibition at 0.1 µM (PDGFRA (PDGFR alpha)) [%]	inhibition at 0.1 µM (SRC) [%]	EC50 (HepG2 cell line; 100 nM < EC50 < 1 μM) [nM]	EC50 (HuCCT1 cell line; EC50 ≧ 1 μM) [nM]	EC50 (HuH7 cell line) [nM]	inhibition at 0.1 µM (EGFR (ErbB1) T790M L858R) [%]	EC50 (HT29 cell line; EC50 ≧ 1 μM) [nM]	EC50 (A549 cell line; EC50 ≧ 1 μM) [nM]	EC50 (H1975 cell line; EC50 ≧ 1 μM) [nM]	EC50 (HUVEC cells; 100 nM < EC50 < 1 μM) [nM]	EC50 (HepG2 cell line; EC50 ≧ 1 μM) [nM]	also measured
COC(=O)c1cc2cc(C=Cc3cc(NC(=O)c4ccc(CN5CCN(C)CC5)cc4)ccc3C)cnc2[nH]1 [OR0776, 5-(-2-{2-Methyl-5-[4-(4-methyl-piperazin-1-ylmethyl)-benzoylamino]-phenyl}-vinyl)-1H-pyrrolo[2,3-b]pyridine-2-carboxylic acid methyl ester]	< 50	< 50	< 50	≥ 50	≥ 50	< 50	–	–	–	–	–	–	–	–	–	EC50 (HRMEC cells; EC50 ≧ 1 μM): ≥ 1000 nM
CC(=O)c1cc2cc(CCc3cc(NC(=O)c4ccc(CN5CCC(N(C)C)C5)c(C(F)(F)F)c4)ccc3C)cnc2[nH]1 (stereo not drawn) [OR0798, N-{3-[2-(2-Acetyl-1H-pyrrolo[2,3-b]pyridin-5-yl)-ethyl]-4-methyl-phenyl}-4-(3-dimethylamino-pyrrolidin-1-ylmethyl)-3-trifluoromethyl-benzamide]	≥ 50	≥ 50	≥ 50	≥ 50	≥ 50	≥ 50	100 to 1000	≥ 1000	100 to 1000	–	–	–	–	–	–	EC50 (A549 cell line; EC50 ≦ 100 nM): ≤ 100 nM; EC50 (HRMEC cells; 100 nM < EC50 < 1 μM): 100 to 1000 nM; EC50 (HUVEC cells; EC50 ≦ 100 nM): ≤ 100 nM; EC50 (HeLa cell line): 100 to 1000 nM; EC50 (HuH6 Clone 5 cell line; 100 nM < EC50 < 1 μM): 100 to 1000 nM; EC50 (MDA-MB-231 cell line; 100 nM < EC50 < 1 μM): 100 to 1000 nM
COC(=O)c1cc2cc(CCc3cc(NC(=O)c4ccc(CN5CCN(C)CC5)c(C(F)(F)F)c4)ccc3C)cnc2[nH]1 [OR0748, 5-(2-{2-Methyl-5-[4-(4-methyl-piperazin-1-ylmethyl)-3-trifluoromethyl-benzoylamino]-phenyl}-ethyl)-1H-pyrrolo[2,3-b]pyridine-2-carboxylic acid methyl ester]	≥ 50	≥ 50	≥ 50	≥ 50	≥ 50	≥ 50	100 to 1000	–	100 to 1000	≥ 50	≥ 1000	–	–	–	–	EC50 (A549 cell line; 100 nM < EC50 < 1 μM): 100 to 1000 nM; EC50 (A549 cell line; EC50 ≦ 100 nM): ≤ 100 nM; EC50 (H1975 cell line; 100 nM < EC50 < 1 μM): 100 to 1000 nM; EC50 (HUVEC cells; EC50 ≦ 100 nM): ≤ 100 nM; EC50 (HeLa cell line): 100 to 1000 nM; EC50 (HuCCT1 cell line; 100 nM < EC50 < 1 μM): 100 to 1000 nM; EC50 (HuH6 Clone 5 cell line; EC50 ≧ 1 μM): ≥ 1000 nM; EC50 (MDA-MB-231 cell line; EC50 ≦ 100 nM): ≤ 100 nM
COC(=O)c1cc2cc(C=Cc3cc(NC(=O)c4ccc(CN5CCN(C)CC5)c(C(F)(F)F)c4)ccc3C)cnc2[nH]1 [OR0777, 5-(-2-{2-Methyl-5-[4-(4-methyl-piperazin-1-ylmethyl)-3-trifluoromethyl-benzoylamino]-phenyl}-vinyl)-1H-pyrrolo[2,3-b]pyridine-2-carboxylic acid methyl ester]	< 50	≥ 50	≥ 50	≥ 50	≥ 50	≥ 50	100 to 1000	–	100 to 1000	< 50	≥ 1000	≥ 1000	≥ 1000	100 to 1000	–	EC50 (HuCCT1 cell line; 100 nM < EC50 < 1 μM): 100 to 1000 nM; EC50 (HuH6 Clone 5 cell line; 100 nM < EC50 < 1 μM): 100 to 1000 nM
COC(=O)c1cc2cc(CNc3cc(NC(=O)c4ccc(C)cc4)ccc3C)cnc2[nH]1 [OR0738, 5-{[2-Methyl-5-(4-methyl-benzoylamino)-phenylamino]-methyl}-1H-pyrrolo[2,3-b]pyridine-2-carboxylic acid methyl ester]	< 50	< 50	< 50	< 50	< 50	< 50	–	≥ 1000	–	< 50	≥ 1000	≥ 1000	≥ 1000	–	≥ 1000	EC50 (HUVEC cells; EC50 ≧ 1 μM): ≥ 1000 nM
COC(=O)c1cc2cc(COc3cc(NC(=O)c4ccc(CN5CCN(C)CC5)c(C(F)(F)F)c4)ccc3C)cnc2[nH]1 [OR0749, 5-{2-Methyl-5-[4-(4-methyl-piperazin-1-ylmethyl)-3-trifluoromethyl-benzoylamino]-phenoxymethyl}-1H-pyrrolo[2,3-b]pyridine-2-carboxylic acid methyl ester]	< 50	≥ 50	≥ 50	≥ 50	≥ 50	≥ 50	–	≥ 1000	100 to 1000	< 50	–	≥ 1000	≥ 1000	100 to 1000	≥ 1000	EC50 (HT29 cell line; 100 nM < EC50 < 1 μM): 100 to 1000 nM; EC50 (HuH6 Clone 5 cell line; EC50 ≧ 1 μM): ≥ 1000 nM
COC(=O)c1cc2cc(COc3cc(NC(=O)c4ccc(CN5CCC(N(C)C)C5)c(C(F)(F)F)c4)ccc3C)cnc2[nH]1 (stereo not drawn) [OR0750, 5-{5-[4-(3-Dimethylamino-pyrrolidin-1-ylmethyl)-3-trifluoromethyl-benzoylamino]-2-methyl-phenoxymethyl}-1H-pyrrolo[2,3-b]pyridine-2-carboxylic acid methyl ester]	< 50	≥ 50	≥ 50	≥ 50	≥ 50	≥ 50	–	≥ 1000	–	< 50	≥ 1000	≥ 1000	–	100 to 1000	≥ 1000	EC50 (H1975 cell line; 100 nM < EC50 < 1 μM): 100 to 1000 nM

Source: US9550772B2, “Azaindole derivatives as multi kinase inhibitors” (ORIBASE PHARMA, priority 2012, dated 2017)
